Laboratory results from patent US4559326A, “Antiinflammatory compositions and methods” (Pfizer Inc., priority 1985, dated 1985).
Counter-ions that a name gives are not always drawn.

System: Gastric lesions induced by the ethanolamine salt of piroxicam
Assay: Protective effect of inositol on piroxicam-induced gastric lesions in rats
Format: in vivo, rat (CD strain, Sprague-Dawley)
Details: for Significance p < 0.05: two-tailed Student's t-test; for Lesions/Rat (X +/- SE): mean (SE)
Experimental: Adult male "specific pathogen free" rats weighing 140-160 grams of the CD strain (Sprague-Dawley) were obtained from Charles River Breeding Laboratories (Kingston, N.Y.). The animals were acclimated for approximately one week and tested when they reached a body weight of 200-225 grams. The rats were fasted for 16 hours and randomized into groups consisting of 8 to 20 animals which were normalized with regard to their average body weight.
Gastric ulcers were induced in the animals by orally dosing them with a single 120 mg/kg dose of piroxicam (ethanolamine salt) in 2 ml. of aqueous 0.1% methylcellulose (pH=6.8). Those animals receiving a second medicinal agent separately received the second drug in an additional 2 ml. of the same medium at about the same time. Six and one-half hours later, the animals were sacrificed by cervical dislocation and autopsied. The stomachs were surgically removed, dissected along the greater curvature and rinsed with cold water. The stomachs were individually scored for both linear and punctate lesions. The total number of lesions was used for scoring purposes. The data obtained from each group of rats were analyzed after calculation of the mean number +/- the standard error of total gastric lesions. The values obtained were also compared to the controls which received only piroxicam by the two-tailed Student's T-Test for nonpaired data.

Lesions/Rat (X +/- SE) (control: 120 mg/kg oral piroxicam ethanolamine salt alone, inositol 0 mg/kg, 6.5 h, 30 rats)	Compound	ED50 (Rattus norvegicus, 6.5 h, oral, linear regression analysis, lesions induced by 120 mg/kg piroxicam ethanolamine salt, read-out: ED50 (dose of inositol required to inhibit 50% of control gastric lesion)) [mg/kg]	Reduction of piroxicam-induced gastric lesions (healthy fasted rat, statement in words)	Significance p < 0.05 (inositol 10 mg/kg oral vs piroxicam-only control)	Lesions/Rat (X +/- SE) (inositol 10 mg/kg oral, with 120 mg/kg oral piroxicam ethanolamine salt, fasted male rats, 6.5 h, 40 rats)	Significance p < 0.05 (inositol 33 mg/kg oral vs piroxicam-only control)	Lesions/Rat (X +/- SE) (inositol 33 mg/kg oral, with 120 mg/kg oral piroxicam ethanolamine salt, fasted male rats, 6.5 h, 40 rats)	Significance p < 0.05 (inositol 100 mg/kg oral vs piroxicam-only control)	Lesions/Rat (X +/- SE) (inositol 100 mg/kg oral, with 120 mg/kg oral piroxicam ethanolamine salt, fasted male rats, 6.5 h, 40 rats)	Significance p < 0.05 (inositol 333 mg/kg oral vs piroxicam-only control)	Lesions/Rat (X +/- SE) (inositol 333 mg/kg oral, with 120 mg/kg oral piroxicam ethanolamine salt, fasted male rats, 6.5 h, 40 rats)
	O[C@H]1[C@H](O)[C@@H](O)[C@H](O)[C@@H](O)[C@H]1O [Inositol, cis-1,2,3,4-trans-4,6-cyclohexanehexol]	85	significantly reduces	+ (p < 0.05)	4.7 (0.9) Lesions/Rat	+ (p < 0.05)	5.2 (0.7) Lesions/Rat	+ (p < 0.05)	3.6 (0.6) Lesions/Rat	+ (p < 0.05)	3.0 (0.8) Lesions/Rat
7.5 (0.8) Lesions/Rat	CN1C(C(=O)Nc2ccccn2)=C(O)c2ccccc2S1(=O)=O [ethanolamine salt of piroxicam]										
